Measured values as given in US6706740B2, “Fungicidal heterocyclic aromatic amides and their compositions, methods of use and preparation” (Dow AgroSciences LLC, priority 1999, dated 2004).
Read-outs that look alike come from different tables or passages of the source.

Experiments:
[1] = system: Ustilago maydis (USTIMA); test: microbe, parasite or virus in culture; type: cell-based; details: Mycosarcoma maydis, read-out: USTIMA in vitro Growth Inhibition
[2] = system: Mycosphaerella graminicola (Septoria tritici—SEPTTR); test: In vitro fungal growth inhibition, Mycosphaerella graminicola (SEPTTR); type: cell-based; details: Zymoseptoria tritici, read-out: SEPTTR in vitro Growth Inhibition
[3] = system: Stagonospora nodorum (Leptosphaeria nodorum—LEPTNO); test: In vitro fungal growth inhibition, Stagonospora nodorum (LEPTNO); type: cell-based; details: Leptosphaeria, read-out: LEPTNO in vitro Growth Inhibition
[4] = system: Rhizoctonia solani (RHIZSO); test: microbe, parasite or virus in culture; type: cell-based; details: Rhizoctonia solani, read-out: RHIZSO in vitro Growth Inhibition
[5] = system: Magnaporthe grisea (Pyricularia oryzae—PYRIOR); test: microbe, parasite or virus in culture; type: cell-based; details: Pyricularia oryzae, read-out: PYRIOR in vitro Growth Inhibition
[6] = system: Phytophthora infestans (PHYTIN); test: microbe, parasite or virus in culture; type: cell-based; details: Phytophthora infestans, read-out: PHYTIN in vitro Growth Inhibition
[7] = system: Phytophthora infestans—PHYTIN; test: whole plant or invertebrate; type: in vivo; details: Phytophthora, in Solanum lycopersicum, 24 h, read-out: PHYTIN in vivo 1 Day Protectant
[8] = system: Erysiphe graminis—ERYSGT; test: Powdery Mildew of Wheat, in vivo whole plant, 24 Hour Protectant; details: for pest or weed control at 100 ppm: Erysiphe, read-out: ERYSGT in vivo 1 Day Protectant
[9] = system: Puccinia recondita—PUCCRT; test: Brown Rust of Wheat, in vivo whole plant, 24 Hour Protectant; details: for pest or weed control at 100 ppm: Puccinia, read-out: PUCCRT in vivo 1 Day Protectant
[10] = system: Septoria tritici—SEPTTR; test: Leaf Blotch of Wheat, in vivo whole plant, 24 Hour Protectant; details: 100 ppm spray, 24 hour protectant, wheat; for pest or weed control at 100 ppm: Zymoseptoria tritici, 24 h, read-out: SEPTTR in vivo 1 Day Protectant
[11] = system: Leptosphaeria nodorum—LEPTNO; test: Glume Blotch of Wheat, in vivo whole plant, 24 Hour Protectant; details: for pest or weed control at 100 ppm: Leptosphaeria, read-out: LEPTNO in vivo 1 Day Protectant
[12] = 100 ppm spray, 24 hour protectant, wheat, control of fungal infection vs untreated plants
[13] = control of fungal infection vs untreated plants
[14] = 100 ppm spray, wheat, 24 hour protectant, % control of fungal infection vs untreated plants
[15] = % control of fungal infection vs untreated plants

| SMILES | inhibition at 25 ppm [1] | inhibition at 25 ppm ([2]; 25 ppm in growth medium) | inhibition at 25 ppm ([3]; 25 ppm in growth medium) | inhibition at 25 ppm [4] | inhibition at 25 ppm [5] | melting point | inhibition at 25 ppm [6] | pest or weed control at 100 ppm [7] | pest or weed control at 100 ppm [8, 14] | pest or weed control at 100 ppm [9, 14] | LEPTNO in vivo 1 Day Protectant [11, 14] | also measured |
| --- | --- | --- | --- | --- | --- | --- | --- | --- | --- | --- | --- | --- |
| O=C(NC1CCCCCCC1)c1ncccc1O [Compound 203] | < 80% | > 80% | > 80% | > 80% | > 80% | 63 to 64 °C | < 80% | – | – | – | – | – |
| O=C(NC1CCC(O)CC1)c1ncccc1O (centres unmarked) [Compound 208] | < 80% | < 80% | < 80% | < 80% | < 80% | 112 to 115 °C | < 80% | 25 to 74% | – | – | – | pest or weed control at 100 ppm [8, 12]: < 25%; pest or weed control at 100 ppm [9, 12]: 25 to 74%; pest or weed control at 100 ppm [10, 13]: < 25%; pest or weed control at 100 ppm [11, 12]: < 25% |
| CC(=O)OC1CCC(NC(=O)c2ncccc2O)CC1 (centres unmarked) [Compound 209] | < 80% | < 80% | < 80% | < 80% | < 80% | 123 to 126 °C | < 80% | < 25% | – | – | – | pest or weed control at 100 ppm [8, 12]: < 25%; pest or weed control at 100 ppm [9, 12]: < 25%; pest or weed control at 100 ppm [10, 13]: 25 to 74%; pest or weed control at 100 ppm [11, 12]: < 25% |
| CC(C)C(=O)OC1CCC(NC(=O)c2ncccc2O)CC1 (centres unmarked) [Compound 210] | < 80% | < 80% | < 80% | < 80% | < 80% | 139 to 142 °C | < 80% | < 25% | – | – | – | pest or weed control at 100 ppm [8, 12]: < 25%; pest or weed control at 100 ppm [9, 12]: < 25%; pest or weed control at 100 ppm [10, 13]: 25 to 74%; pest or weed control at 100 ppm [11, 12]: < 25% |
| COc1ccnc(C(=O)NC2CCN(Cc3cccc(C(F)(F)F)c3)CC2)c1O.O=C(O)/C=C\C(=O)O.O=C(O)/C=C\C(=O)O [Compound 307] | < 80% | – | – | < 80% | < 80% | 168 to 170 °C | < 80% | < 25% | – | – | – | pest or weed control at 100 ppm ([8]; 24 h): 25 to 74%; pest or weed control at 100 ppm ([9]; 24 h): < 25%; inhibition at 25 ppm [2]: < 80%; inhibition at 25 ppm [3]: < 80%; pest or weed control at 100 ppm ([11]; 24 h): < 25% |
| COc1ccnc(C(=O)N[C@H]2COC(=O)[C@H](Cc3ccccc3)[C@@H](OC(=O)C(C)C)[C@H](C)OC2=O)c1OC(=O)C(C)C [Compound 602] | < 80% | < 80% | > 80% | < 80% | < 80% | 160 to 161 °C | < 80% | < 25% | < 25% | – | – | – |
| COc1ccnc(C(=O)Nc2ccc(Oc3ccc(C(F)(F)F)cc3)cc2)c1OC(C)=O [Compound 709] | > 80% | > 80% | > 80% | > 80% | > 80% | 165 to 166 °C | < 80% | < 25% | – | < 25% | + + | ERYSGT in vivo 1 Day Protectant [8, 14]: + + |
| COc1ccnc(C(=O)Nc2cccc(Sc3ccc(C(F)(F)F)cc3)c2)c1OC(C)=O [Compound 710] | < 80% | > 80% | > 80% | < 80% | > 80% | – | < 80% | < 25% | < 25% | – | + + | PUCCRT in vivo 1 Day Protectant [9, 14]: + +; SEPTTR in vivo 1 Day Protectant [10, 15]: + + |
| COCCC(=O)Oc1c(OC)ccnc1C(=O)Nc1ccc(Sc2cccc(C(F)(F)F)c2)cc1 [Compound 712] | < 80% | > 80% | > 80% | < 80% | > 80% | – | < 80% | < 25% | – | – | – | ERYSGT in vivo 1 Day Protectant [8, 14]: + +; PUCCRT in vivo 1 Day Protectant [9, 14]: + +; SEPTTR in vivo 1 Day Protectant [10, 15]: + +; pest or weed control at 100 ppm [11, 14]: 25 to 74% |
| COCCC(=O)Oc1c(OC)ccnc1C(=O)Nc1ccc(C(=O)Oc2cccc(C(F)(F)F)c2)cc1 [Compound 716] | < 80% | < 80% | < 80% | < 80% | < 80% | – | < 80% | < 25% | < 25% | 25 to 74% | – | pest or weed control at 100 ppm [10, 15]: 25 to 74%; pest or weed control at 100 ppm [11, 14]: 25 to 74% |
| COc1ccnc(C(=O)N[C@H]2COC(=O)[C@H](Cc3ccccc3)[C@@H](OC(=O)C(C)C)[C@H](C)OC2=O)c1OS(C)(=O)=O [Compound 721] | < 80% | < 80% | > 80% | < 80% | < 80% | 189 to 194 °C | < 80% | < 25% | < 25% | – | + + | PUCCRT in vivo 1 Day Protectant [9, 14]: + + |
| COc1ccnc(C(=O)N[C@H]2COC(=O)[C@H](Cc3ccccc3)[C@@H](OC(=O)C(C)C)[C@H](C)OC2=O)c1OS(=O)(=O)c1ccc(C)cc1 [Compound 722] | < 80% | < 80% | < 80% | < 80% | < 80% | 153 to 155 °C | < 80% | < 25% | < 25% | 25 to 74% | + + | – |
| COc1ccnc(C(=O)Nc2ccc(Oc3ccc(C(F)(F)F)cc3)cc2)c1OS(C)(=O)=O [Compound 723] | < 80% | < 80% | < 80% | < 80% | < 80% | 177 to 180 °C | < 80% | 25 to 74% | < 25% | 25 to 74% | – | pest or weed control at 100 ppm [11, 14]: 25 to 74% |
